{
  "source": "ChEMBL document CHEMBL5053510",
  "about": "“Discovery of AS-1763: A Potent, Selective, Noncovalent, and Orally Available Inhibitor of Bruton's Tyrosine Kinase” (J Med Chem, 2021)",
  "key": {"[1]": {"molecular_target": "Tyrosine-protein kinase BTK (Homo sapiens, UniProt Q06187)", "sequence (Q06187 whole entry)": "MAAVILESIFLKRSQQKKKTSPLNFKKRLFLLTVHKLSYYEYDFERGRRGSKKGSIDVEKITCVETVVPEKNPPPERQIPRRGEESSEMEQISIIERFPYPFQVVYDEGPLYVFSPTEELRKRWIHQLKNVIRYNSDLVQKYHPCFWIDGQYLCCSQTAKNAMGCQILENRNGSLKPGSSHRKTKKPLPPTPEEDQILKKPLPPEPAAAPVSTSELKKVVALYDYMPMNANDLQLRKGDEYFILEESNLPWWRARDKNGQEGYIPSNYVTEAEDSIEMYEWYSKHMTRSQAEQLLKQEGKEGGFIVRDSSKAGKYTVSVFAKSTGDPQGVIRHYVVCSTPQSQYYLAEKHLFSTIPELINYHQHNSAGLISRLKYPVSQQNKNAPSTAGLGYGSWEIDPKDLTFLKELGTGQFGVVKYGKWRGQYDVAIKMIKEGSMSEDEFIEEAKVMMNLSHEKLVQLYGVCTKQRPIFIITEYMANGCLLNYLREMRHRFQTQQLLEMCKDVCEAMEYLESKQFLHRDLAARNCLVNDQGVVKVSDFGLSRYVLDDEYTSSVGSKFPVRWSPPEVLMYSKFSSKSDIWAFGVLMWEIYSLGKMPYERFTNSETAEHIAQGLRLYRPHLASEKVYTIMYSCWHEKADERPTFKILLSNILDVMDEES", "experiment": "Inhibition of human BTK-A using phosphorylated substrate in presence of ATP by microplate reader assay"}, "OCI-Ly10": {"test_system": "OCI-Ly10", "experiment": "Antiproliferative activity against human OCILY10 cells assessed as reduction in cell proliferation measured after 96 hrs", "type": "functional, cell-based", "settings": "OCI-Ly10, 96 h"}},
  "data": [
    {"compound": "Nc1nc(-c2cccc(-n3ccc4cc(C5CC5)cc(F)c4c3=O)c2CO)c2cc(C3=CCN(C(=O)CN4CCOCC4)CC3)[nH]c2n1", "values": [
      {"measurement": "IC50", "setting": "[1]", "value": 0.69, "unit": "nM"},
      {"measurement": "IC50", "setting": "OCI-Ly10", "value": 13, "unit": "nM"}
    ]},
    {"compound": "Nc1nc(-c2cccc(-n3ccc4cc(C5CC5)cc(F)c4c3=O)c2CO)c2cc[nH]c2n1", "values": [
      {"measurement": "IC50", "setting": "[1]", "value": 51, "unit": "nM"}
    ]},
    {"compound": "Nc1nc(-c2cccc(-n3ccc4cc(C5CC5)cc(F)c4c3=O)c2CO)c2cc(-c3cccnc3)[nH]c2n1", "values": [
      {"measurement": "IC50", "setting": "[1]", "value": 2.1, "unit": "nM"}
    ]}
  ]
}
